Laboratory results published in ChEMBL document CHEMBL1201862, “PubChem BioAssay data set” (2004).
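Compound exposure: 48 hours, 5 concentrations, 96-well plates. The concentration for 50% growth inhibition is given as GI50.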 Active and inactive are the calls of the source. No stated cut-off is given here; in the data, active = GI50 up to about 1.1 µM and inactive = higher.

How the values were obtained:
Assay in all cases: DTP human tumour cell line panel, 48 h
DLD-1 = system: DLD-1
M19-MEL = system: M19-MEL
NCI/ADR-RES = system: NCI/ADR-RES
SNB-78 = system: SNB-78
RXF 631 = system: RXF 631
DU-145 = system: DU-145
Hs-578T = system: Hs-578T
MDA-N = system: MDA-N

Row | Structure (SMILES) | GI50 (DLD-1) | GI50 (M19-MEL) | GI50 (NCI/ADR-RES) | GI50 (SNB-78) | GI50 (RXF 631) | GI50 (DU-145) | GI50 (Hs-578T) | GI50 (MDA-N)
1 | CN(C)C(=O)Oc1c(Br)cc(Br)cc1C(=O)OCc1ccccc1 | 25.4 µM (inactive) | 20 µM (inactive) | 18.5 µM (inactive) | 33.1 µM (inactive) | – | – | – | –
2 | COc1ccc(/N=C\c2ccc(N(CCC#N)S(=O)(=O)c3ccccc3)cc2C)cc1 | – | 41.7 µM (inactive) | – | 79.1 µM (inactive) | 59.8 µM (inactive) | – | – | –
3 | O=C(CCCn1cnc([N+](=O)[O-])n1)NCCn1ccnc1[N+](=O)[O-] | – | – | – | – | – | > 100 µM (inactive) | > 100 µM (inactive) | > 100 µM (inactive)
4 | O=C1CCCC/C1=C1/SC(=N/c2ccccc2)/C(=N\c2ccccc2)N1c1ccccc1 | – | – | > 100 µM (inactive) | – | – | 56.8 µM (inactive) | 78.3 µM (inactive) | > 100 µM (inactive)
5 | COc1ccc2c(O)c3[n+](cc2c1OC)CCc1cc2c(cc1-3)OCO2 | – | – | > 100 µM (inactive) | – | – | > 100 µM (inactive) | > 100 µM (inactive) | 33.6 µM (inactive)
6 | O=C(NNC(=S)Nc1ccccc1)c1nsc2ccccc12 | – | 28.9 µM (inactive) | – | 47.9 µM (inactive) | – | – | – | –
7 | CS(C)(=O)=Nn1c(=O)n2n(c1=O)C1c3ccccc3C2c2ccccc21 | – | – | > 100 µM (inactive) | – | – | > 100 µM (inactive) | – | > 100 µM (inactive)
8 | CCNC(=S)NNC(=O)c1nsc2ccccc12 | – | 97.3 µM (inactive) | – | > 100 µM (inactive) | – | – | – | –
9 | O=C(Nc1ccc([N+](=O)[O-])cc1)C(=O)C(C(=O)c1ccccc1F)C1OC(=O)c2ccccc21 (stereo unspecified) | 40.6 µM (inactive) | 28.1 µM (inactive) | – | 5.65 µM (inactive) | 26 µM (inactive) | – | – | –
10 | COc1cc([C@@H]2c3cc4c(cc3[C@H](O)[C@H]3COC(=O)[C@H]23)OCO4)cc(OC)c1OC [PODOFILOX] | 0.0243 µM (active) | – | < 0.005 µM (active) | 0.01 µM (active) | – | < 0.005 µM (active) | < 0.005 µM (active) | < 0.005 µM (active)
11 | CCN(CC)/[N+]([O-])=N/O | – | > 100 µM (inactive) | – | > 100 µM (inactive) | > 100 µM (inactive) | – | – | –
12 | COC(=O)CN(C)P(=O)(N1CC1)N1CC1 | > 100 µM (inactive) | – | – | > 100 µM (inactive) | > 100 µM (inactive) | – | – | –
13 | C=CCOC1OC(CS(=O)(=O)O)C(O)C(O)C1O (stereo unspecified) | – | – | > 100 µM (inactive) | – | – | > 100 µM (inactive) | > 100 µM (inactive) | > 100 µM (inactive)
14 | CN(C)CCOc1cc2c(c3ccccc13)-c1ccccc1C2O (stereo unspecified) | 15.8 µM (inactive) | 16.6 µM (inactive) | 3.49 µM (inactive) | 15.9 µM (inactive) | – | – | – | –
15 | C1CSCCSCCSCCSC1 | – | – | > 100 µM (inactive) | – | – | > 100 µM (inactive) | > 100 µM (inactive) | > 100 µM (inactive)
16 | Cc1ccc(S(=O)(=O)NCCSS(=O)(=O)c2ccc(C)cc2)cc1 | – | – | 25.8 µM (inactive) | – | – | 42.6 µM (inactive) | 96.4 µM (inactive) | 23.1 µM (inactive)
17 | Nc1nc2ccc3ccccc3c2[nH]1 | – | – | > 10 µM (inactive) | – | – | > 10 µM (inactive) | > 10 µM (inactive) | > 10 µM (inactive)
